Test results taken from US9249128B2 (priority 2010, dated 2016).
pIC50: −log10 of the molar value. Read-outs that look alike come from different tables or passages of the source.

Biological target: T1, KIAA1363 (Mus musculus, UniProt Q8BLF1)
T1 construct: ABPP analysis of KIAA1363 activity in mouse brain membrane proteome; from tissue; host or cells: mouse brain (membrane fraction)
T1 sequence (Q8BLF1 1-408): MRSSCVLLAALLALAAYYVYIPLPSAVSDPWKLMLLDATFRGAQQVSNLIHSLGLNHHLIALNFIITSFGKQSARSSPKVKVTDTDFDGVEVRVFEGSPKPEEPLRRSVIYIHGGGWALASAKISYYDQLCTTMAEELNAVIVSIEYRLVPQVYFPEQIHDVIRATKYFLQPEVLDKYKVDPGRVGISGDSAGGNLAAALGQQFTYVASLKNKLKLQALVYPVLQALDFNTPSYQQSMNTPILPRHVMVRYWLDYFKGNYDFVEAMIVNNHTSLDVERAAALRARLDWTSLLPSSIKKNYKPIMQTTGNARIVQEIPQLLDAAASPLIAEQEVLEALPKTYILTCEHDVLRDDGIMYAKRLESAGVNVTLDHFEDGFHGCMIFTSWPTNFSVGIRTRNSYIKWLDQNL
Assay: Gel-based competitive ABPP of KIAA1363 in mouse brain membrane proteome (FP-rhodamine)
Assay type: biochemical
Method: In various embodiments, the invention provides a method of inhibiting a serine hydrolase, comprising contacting the hydrolase with a compound of formula (I), e.g., a compound selected from set of compounds shown in Table 1, below. […] IC50 values were derived from ABPP analysis of KIAA1363 activity in mouse brain membrane proteome and are averages of three replicates. Inhibitors were added to the proteome for 30 min before addition of FP-rhodamine (1 μM, 30 min).
Tissues were Dounce-homogenized in PBS, pH 7.4, followed by a low-speed spin (1,400 g, 5 min) to remove debris. The supernatant was then subjected to centrifugation (100,000×g, 45 min) to provide the cytosolic fraction in the supernatant and the unsoluble fraction as a pellet. The pellet was washed and resuspended in PBS buffer by sonication. Total protein concentration in each fraction was determined using a protein assay kit (Bio-Rad). Samples were stored at −80° C. until use.
For ABPP experiments, cell lysate and tissue proteomes were treated with 1 μM FP-rhodamine for 30 min at room temperature (50 μL total reaction volume) as described previously (Nomura et al., 2010). Reactions were quenched with one volume of standard 4×SDS/PAGE loading buffer (reducing), separated by SDS/PAGE (10% acrylamide), and visualized in-gel with a Hitachi FMBio IIe flatbed fluorescence scanner (MiraiBio). Inhibitors were preincubated prior (30 min or 4 h at 37° C. in vitro or in situ, respectively) to the addition of FP-rhodamine.

[1] = mouse brain membrane proteome, inhibitor 30 min before FP-rhodamine (1 μM, 30 min), averages of three replicates, read-out: IC50 (KIAA1363)
[2] = screened against KIAA1363, Table 1, read-out: IC50 values of less than 1 micromolar

SMILES: CCOc1ccccc1OC(=O)NCCCc1ccccc1
- pIC50 [1]: 5.75

SMILES: Cc1ccc2ccccc2c1OC(=O)NCc1ccc(-c2ccccc2)cc1
- pIC50 [1]: < 4.30

SMILES: CCOc1ccccc1OC(=O)NCc1ccc(-c2ccccc2)cc1
- pIC50 [1]: < 4.30

SMILES: CCOc1ccccc1OC(=O)NCCc1cccs1
- pIC50 [1]: < 5.00

SMILES: CCOc1ccccc1OC(=O)NCCc1ccc2ccccc2c1
- pIC50 [1]: 6.05
- pIC50 [2]: > 6.00

SMILES: CC1(C)Cc2cccc(OC(=O)NCc3ccc(I)cc3)c2O1 [JW147, 2,2-dimethyl-2,3-dihydrobenzofuran-7-yl 4-iodobenzylcarbamate]
- pIC50 [1]: 6.83
- pIC50 [2]: > 6.00

SMILES: O=C(NCCc1ccc(F)cc1)Oc1ccc(-n2cccc2)cc1 [JW382, 4-(1H-pyrrol-1-yl)phenyl 4-fluorophenethylcarbamate]
- pIC50 [1]: 5.92

SMILES: O=C(NCc1ccc(C(F)(F)F)cc1)Oc1ccc(-n2cccc2)cc1 [JW383, 4-(1H-pyrrol-1-yl)phenyl 4-(trifluoromethyl)benzylcarbamate]
- pIC50 [1]: 6.00
- pIC50 [2]: > 6.00

SMILES: COc1ccc(CNC(=O)Oc2ccc(-n3cccc3)cc2)cc1 [JW384, 4-(1H-pyrrol-1-yl)phenyl 4-methoxybenzylcarbamate]
- pIC50 [1]: 6.18
- pIC50 [2]: > 6.00

SMILES: Cc1ccc2ccccc2c1OC(=O)NCc1ccc(C(F)(F)F)cc1 [JW385, 2-methylnaphthalen-1-yl 4-(trifluoromethyl)benzylcarbamate]
- pIC50 [1]: < 4.30

SMILES: COc1ccc(CNC(=O)Oc2c(C)ccc3ccccc23)cc1 [JW386, 2-methylnaphthalen-1-yl 4-methoxybenzylcarbamate]
- pIC50 [1]: < 5.00

SMILES: CCOc1ccccc1OC(=O)NCc1ccc(C(F)(F)F)cc1 [JW387, 2-ethoxyphenyl 4-(trifluoromethyl)benzylcarbamate]
- pIC50 [1]: 5.55

SMILES: CCOc1ccccc1OC(=O)NCc1ccc(OC)cc1 [JW388, 2-ethoxyphenyl 4-methoxybenzylcarbamate]
- pIC50 [1]: 5.79

SMILES: O=C(NCc1ccc(OC(F)(F)F)cc1)Oc1ccc(-n2cccc2)cc1 [JW389, 4-(1H-pyrrol-1-yl)phenyl 4-(trifluoromethoxy)benzylcarbamate]
- pIC50 [1]: 6.58
- pIC50 [2]: > 6.00

SMILES: Cc1ccc2ccccc2c1OC(=O)NCc1ccc(OC(F)(F)F)cc1 [JW390, 2-methylnaphthalen-1-yl 4-(trifluoromethoxy)benzylcarbamate]
- pIC50 [1]: < 5.00

SMILES: CCOc1ccccc1OC(=O)NCc1ccc(OC(F)(F)F)cc1 [JW391, 2-ethoxyphenyl 4-(trifluoromethoxy)benzylcarbamate]
- pIC50 [1]: 5.98

SMILES: O=C(NCc1ccc(Cl)cc1)Oc1ccc(-n2cccc2)cc1 [JW392, 4-(1H-pyrrol-1-yl)phenyl 4-chlorobenzylcarbamate]
- pIC50 [1]: 6.41
- pIC50 [2]: > 6.00

SMILES: O=C(NCCCc1ccccc1)Oc1ccc(-n2cccc2)cc1 [JW393, 4-(1H-pyrrol-1-yl)phenyl (3-phenylpropyl)carbamate]
- pIC50 [1]: < 4.30

SMILES: Cc1ccc2ccccc2c1OC(=O)NCc1ccc(Cl)cc1 [JW395, 2-methylnaphthalen-1-yl 4-chlorobenzylcarbamate]
- pIC50 [1]: < 4.30

SMILES: Cc1ccc2ccccc2c1OC(=O)NCCCc1ccccc1 [JW396, 2-methylnaphthalen-1-yl (3-phenylpropyl)carbamate]
- pIC50 [1]: < 5.00

SMILES: CCOc1ccccc1OC(=O)NCc1ccc(Cl)cc1 [JW398, 2-ethoxyphenyl 4-chlorobenzylcarbamate]
- pIC50 [1]: 6.01
- pIC50 [2]: > 6.00

SMILES: CCCCc1ccc(CNC(=O)Oc2c(C)ccc3ccccc23)cc1 [JW406, 2-methylnaphthalen-1-yl 4-butylbenzylcarbamate]
- pIC50 [1]: < 4.30

SMILES: CCCCc1ccc(CNC(=O)Oc2ccccc2OCC)cc1 [JW409, 2-ethoxyphenyl 4-butylbenzylcarbamate]
- pIC50 [1]: < 4.30

SMILES: O=C(NCCc1ccc(Br)cc1)Oc1ccc(-n2cccc2)cc1 [JW412, 4-(1H-pyrrol-1-yl)phenyl 4-bromophenethylcarbamate]
- pIC50 [1]: 5.78

SMILES: O=C(NCCc1cccs1)Oc1ccc(-n2cccc2)cc1 [JW413, 4-(1H-pyrrol-1-yl)phenyl (2-(thiophen-2-yl)ethyl)carbamate]
- pIC50 [1]: 6.21
- pIC50 [2]: > 6.00

SMILES: O=C(NCCc1ccc2c(c1)OCO2)Oc1ccc(-n2cccc2)cc1 [JW414, 4-(1H-pyrrol-1-yl)phenyl (2-(benzo[d][1,3]dioxol-5-yl)ethyl)carbamate]
- pIC50 [1]: < 5.00

SMILES: Cc1ccc2ccccc2c1OC(=O)NCCc1ccc(Br)cc1 [JW415, 2-methylnaphthalen-1-yl 4-bromophenethylcarbamate]
- pIC50 [1]: 5.97

SMILES: Cc1ccc2ccccc2c1OC(=O)NCCc1cccs1 [JW416, 2-methylnaphthalen-1-yl (2-(thiophen-2-yl)ethyl)carbamate]
- pIC50 [1]: 5.48

SMILES: Cc1ccc2ccccc2c1OC(=O)NCCc1ccc2c(c1)OCO2 [JW417, 2-methylnaphthalen-1-yl (2-(benzo[d][1,3]dioxol-5-yl)ethyl)carbamate]
- pIC50 [1]: 6.85
- pIC50 [2]: > 6.00

SMILES: CCOc1ccccc1OC(=O)NCCc1ccc(Br)cc1 [JW418, 2-ethoxyphenyl 4-bromophenethylcarbamate]
- pIC50 [1]: 6.48
- pIC50 [2]: > 6.00

SMILES: CCOc1ccccc1OC(=O)NCCc1ccc2c(c1)OCO2 [JW420, 2-ethoxyphenyl (2-(benzo[d][1,3]dioxol-5-yl)ethyl)carbamate]
- pIC50 [1]: 5.87

SMILES: O=C(NCCc1ccc(Cl)c(Cl)c1)Oc1ccc(-n2cccc2)cc1 [JW421, 4-(1H-pyrrol-1-yl)phenyl 3,4-dichlorophenethylcarbamate]
- pIC50 [1]: < 5.00

SMILES: Cc1ccc2ccccc2c1OC(=O)NCCc1ccc(Cl)c(Cl)c1 [JW422, 2-methylnaphthalen-1-yl 3,4-dichlorophenethylcarbamate]
- pIC50 [1]: 6.18
- pIC50 [2]: > 6.00

SMILES: CCOc1ccccc1OC(=O)NCCc1ccc(Cl)c(Cl)c1 [JW423, 2-ethoxyphenyl 3,4-dichlorophenethylcarbamate]
- pIC50 [1]: 6.30
- pIC50 [2]: > 6.00

SMILES: O=C(NCCN1CCOCC1)Oc1ccc(-n2cccc2)cc1 [JW425, 4-(1H-pyrrol-1-yl)phenyl (2-morpholinoethyl)carbamate]
- pIC50: < 4.30

SMILES: O=C(NCCc1cc2ccccc2[nH]1)Oc1ccc(-n2cccc2)cc1 [JW426, 4-(1H-pyrrol-1-yl)phenyl (2-(1H-indol-2-yl)ethyl)carbamate]
- pIC50 [1]: < 4.30

SMILES: Cc1ccc2ccccc2c1OC(=O)NCCN1CCOCC1 [JW427, 2-methylnaphthalen-1-yl (2-morpholinoethyl)carbamate]
- pIC50: < 4.30

SMILES: Cc1ccc2ccccc2c1OC(=O)NCCc1cc2ccccc2[nH]1 [JW428, 2-methylnaphthalen-1-yl (2-(1H-indol-2-yl)ethyl)carbamate]
- pIC50 [1]: 5.40

SMILES: CCOc1ccccc1OC(=O)NCCN1CCOCC1 [JW429, 2-ethoxyphenyl (2-morpholinoethyl)carbamate]
- pIC50: < 4.30

SMILES: CCOc1ccccc1OC(=O)NCCc1cc2ccccc2[nH]1 [JW430, 2-ethoxyphenyl (2-(1H-indol-2-yl)ethyl)carbamate]
- pIC50 [1]: < 4.30

SMILES: COc1ccc(CCNC(=O)Oc2ccc(-n3cccc3)cc2)cc1 [JW431, 4-(1H-pyrrol-1-yl)phenyl 4-methoxyphenethylcarbamate]
- pIC50 [1]: 5.89

SMILES: COc1cccc(CCNC(=O)Oc2ccc(-n3cccc3)cc2)c1 [JW432, 4-(1H-pyrrol-1-yl)phenyl 3-methoxyphenethylcarbamate]
- pIC50 [1]: < 5.00

SMILES: O=C(NCCC(c1ccccc1)c1ccccc1)Oc1ccc(-n2cccc2)cc1 [JW433, 4-(1H-pyrrol-1-yl)phenyl (3,3-diphenylpropyl)carbamate]
- pIC50 [1]: < 4.30

SMILES: O=C(NCC(c1ccccc1)c1ccccc1)Oc1ccc(-n2cccc2)cc1 [JW434, 4-(1H-pyrrol-1-yl)phenyl (2,2-diphenylethyl)carbamate]
- pIC50 [1]: < 4.30

SMILES: O=C(NCCc1ccc2ccccc2c1)Oc1ccc(-n2cccc2)cc1 [JW435, 4-(1H-pyrrol-1-yl)phenyl (2-(naphthalen-2-yl)ethyl)carbamate]
- pIC50 [1]: < 4.30

SMILES: COc1ccc(CCNC(=O)Oc2c(C)ccc3ccccc23)cc1 [JW436, 2-methylnaphthalen-1-yl 4-methoxyphenethylcarbamate]
- pIC50 [1]: 5.52

SMILES: COc1cccc(CCNC(=O)Oc2c(C)ccc3ccccc23)c1 [JW437, 2-methylnaphthalen-1-yl 3-methoxyphenethylcarbamate]
- pIC50 [1]: 6.68
- pIC50 [2]: > 6.00

SMILES: Cc1ccc2ccccc2c1OC(=O)NCCC(c1ccccc1)c1ccccc1 [JW438, 2-methylnaphthalen-1-yl (3,3-diphenylpropyl)carbamate]
- pIC50 [1]: < 4.30

SMILES: Cc1ccc2ccccc2c1OC(=O)NCC(c1ccccc1)c1ccccc1 [JW439, 2-methylnaphthalen-1-yl (2,2-diphenylethyl)carbamate]
- pIC50 [1]: < 4.30
